How the values were obtained:
Type in all cases: in vivo
[1] = tested on: cocklebur (common cocklebur, Xanthium strumarium); test: Test C pre-/postemergence greenhouse herbicide test
How it was run: (§1)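 Plant response is scored on a 0–100 scale, where 100 means complete control, by visual comparison with controls 13 to 15 d after greenhouse treatment. Applications are made pre- and postemergence using a surfactant-containing, non-phytotoxic solvent formulation.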

[2] = tested on: cupgrass, woolly (woolly cupgrass, Eriochloa villosa); test: as above
How it was run: as §1

[3] = tested on: bermudagrass (Cynodon dactylon); test: as above
How it was run: as §1

[4] = tested on: foxtail, green (green foxtail, Setaria viridis); test: as above
How it was run: as §1

[5] = tested on: Russian thistle (Salsola kali); test: as above; settings: Preemergence
How it was run: as §1

[6] = tested on: goosegrass (Eleusine indica); test: as above
How it was run: as §1

[7] = tested on: sunflower (common oilseed sunflower, Helianthus annuus); test: as above; settings: Preemergence
How it was run: as §1

[8] = tested on: bromegrass, downy (downy bromegrass, Bromus tectorum); test: as above
How it was run: as §1

[9] = tested on: surinam grass (Brachiaria decumbens); test: as above
How it was run: as §1

[10] = tested on: nightshade (eastern black nightshade, Solanum ptycanthum); test: as above; settings: Preemergence
How it was run: as §1

[11] = tested on: windgrass (Apera spica-venti); test: Test C postemergence greenhouse herbicide test
[12] = tested on: deadnettle (henbit deadnettle, Lamium amplexicaule); test: Test C postemergence greenhouse herbicide test
[13] = tested on: waterhemp_RES1 (ALS & Triazine resistant common waterhemp, Amaranthus rudis); test: Test E postemergence greenhouse herbicide test; settings: scale 0 to 100
Method: At the same time, plants from these crop and weed species and also waterhemp_RES1, (ALS & Triazine resistant common waterhemp, Amaranthus rudis), and waterhemp_RES2, (ALS & HPPD resistant common waterhemp, Amaranthus rudis) were planted in pots containing Redi-Earth® planting medium (Scotts Company, 14111 Scottslawn Road, Marysville, Ohio 43041) comprising spaghnum peat moss, vermiculite, wetting agent and starter nutrients were treated with postemergence applications of test chemicals formulated in the same manner. Plants ranged in height from 2 to 18 cm for postemergence treatments (1- to 4-leaf stage). Treated plants and controls were maintained in a greenhouse for 14 to 21 d, after which time all species were compared to controls and visually evaluated. Plant response ratings, summarized in Table E, are based on a scale of 0 to 100 where 0 is no effect and 100 is complete control. A dash (-) response means no test result.

SMILES: Cc1cc(=O)n(-c2ccc(F)cc2)nc1Oc1ccnc(C(F)(F)F)c1 [Compound 14, 2-(4-fluorophenyl)-5-methyl-6-[[2-(trifluoromethyl)-4-pyridinyl]oxy]-3 (2H)-pyridazinone]
- Plant response rating ([1]; Postemergence, 31 g ai/ha): 35
- Plant response rating ([1]; Postemergence, 62 g ai/ha): 40
- Plant response rating ([1]; Postemergence, 125 g ai/ha): 40
- Plant response rating ([1]; Postemergence, 250 g ai/ha): 85
- Plant response rating ([1]; Preemergence, 31 g ai/ha): 0
- Plant response rating ([2]; Postemergence, 31 g ai/ha): 5
- Plant response rating ([2]; Postemergence, 62 g ai/ha): 15
- Plant response rating ([2]; Postemergence, 125 g ai/ha): 15
- Plant response rating ([2]; Postemergence, 250 g ai/ha): 20
- Plant response rating ([2]; Preemergence, 31 g ai/ha): 65
- Plant response rating ([2]; Preemergence, 62 g ai/ha): 95
- Plant response rating ([2]; Preemergence, 125 g ai/ha): 98
- Plant response rating ([2]; Preemergence, 250 g ai/ha): 98
- Plant response rating ([3]; Postemergence, 31 g ai/ha): 5
- Plant response rating ([3]; Postemergence, 62 g ai/ha): 10
- Plant response rating ([3]; Postemergence, 125 g ai/ha): 10
- Plant response rating ([3]; Postemergence, 250 g ai/ha): 15
- Plant response rating ([3]; Preemergence, 31 g ai/ha): 98
- Plant response rating ([3]; Preemergence, 62 g ai/ha): 98
- Plant response rating ([3]; Preemergence, 125 g ai/ha): 98
- Plant response rating ([3]; Preemergence, 250 g ai/ha): 98
- Plant response rating ([4]; Postemergence, 31 g ai/ha): 10
- Plant response rating ([4]; Postemergence, 62 g ai/ha): 10
- Plant response rating ([4]; Postemergence, 125 g ai/ha): 40
- Plant response rating ([4]; Postemergence, 250 g ai/ha): 98
- Plant response rating ([4]; Preemergence, 31 g ai/ha): 95
- Plant response rating ([4]; Preemergence, 62 g ai/ha): 95
- Plant response rating ([4]; Preemergence, 125 g ai/ha): 95
- Plant response rating ([4]; Preemergence, 250 g ai/ha): 95
- Plant response rating ([5]; 31 g ai/ha): 85
- Plant response rating ([5]; 62 g ai/ha): 90
- Plant response rating ([5]; 125 g ai/ha): 90
- Plant response rating ([5]; 250 g ai/ha): 90
- Plant response rating ([6]; Postemergence, 31 g ai/ha): 5
- Plant response rating ([6]; Postemergence, 62 g ai/ha): 10
- Plant response rating ([6]; Postemergence, 125 g ai/ha): 15
- Plant response rating ([6]; Postemergence, 250 g ai/ha): 15
- Plant response rating ([6]; Preemergence, 31 g ai/ha): 45
- Plant response rating ([6]; Preemergence, 62 g ai/ha): 80
- Plant response rating ([6]; Preemergence, 125 g ai/ha): 100
- Plant response rating ([6]; Preemergence, 250 g ai/ha): 100
- Plant response rating ([7]; 62 g ai/ha): 5
- Plant response rating ([7]; 125 g ai/ha): 5
- Plant response rating ([7]; 250 g ai/ha): 10
- Plant response rating ([8]; Postemergence, 31 g ai/ha): 5
- Plant response rating ([8]; Postemergence, 62 g ai/ha): 5
- Plant response rating ([8]; Postemergence, 125 g ai/ha): 5
- Plant response rating ([8]; Postemergence, 250 g ai/ha): 30
- Plant response rating ([8]; Preemergence, 31 g ai/ha): 5
- Plant response rating ([8]; Preemergence, 62 g ai/ha): 5
- Plant response rating ([8]; Preemergence, 125 g ai/ha): 5
- Plant response rating ([8]; Preemergence, 250 g ai/ha): 30
- Plant response rating ([9]; Postemergence, 31 g ai/ha): 5
- Plant response rating ([9]; Postemergence, 62 g ai/ha): 10
- Plant response rating ([9]; Postemergence, 125 g ai/ha): 30
- Plant response rating ([9]; Postemergence, 250 g ai/ha): 45
- Plant response rating ([9]; Preemergence, 62 g ai/ha): 20
- Plant response rating ([9]; Preemergence, 125 g ai/ha): 75
- Plant response rating ([9]; Preemergence, 250 g ai/ha): 75
- Plant response rating ([10]; 31 g ai/ha): 98
- Plant response rating ([10]; 62 g ai/ha): 98
- Plant response rating ([10]; 125 g ai/ha): 98
- Plant response rating ([10]; 250 g ai/ha): 100
- Plant response rating ([11]; 31 g ai/ha): 20
- Plant response rating ([11]; 62 g ai/ha): 20
- Plant response rating ([11]; 125 g ai/ha): 25
- Plant response rating ([11]; 250 g ai/ha): 30
- Plant response rating ([12]; 31 g ai/ha): 85
- Plant response rating ([12]; 62 g ai/ha): 85
- Plant response rating ([12]; 125 g ai/ha): 85
- Plant response rating ([12]; 250 g ai/ha): 85

SMILES: COc1cc(=O)n(-c2ccc(C(F)(F)F)cc2)nc1Cc1ccnc(C(F)(F)F)c1 [Compound 16, 5-methoxy-2-[4-(trifluoromethyl)phenyl]-6-[[2-(trifluoromethyl)-4-pyridinyl]methyl]-3(2H)-pyridazinone]
- Plant response rating: Waterhemp_RES1 ([13]; 62 g ai/ha): 95
- Plant response rating: Waterhemp_RES1 ([13]; 125 g ai/ha): 100
- Plant response rating: Waterhemp_RES1 ([13]; 250 g ai/ha): 100

SMILES: COc1cc(=O)n(-c2ccc(F)cc2)nc1Cc1ccnc(C(F)(F)F)c1 [Compound 17, 2-(4-fluorophenyl)-5-methoxy-6-[[2-(trifluoromethyl)-4-pyridinyl]methyl]-3 (2H)-pyridazinone]
- Plant response rating: Waterhemp_RES1 ([13]; 16 g ai/ha): 50
- Plant response rating: Waterhemp_RES1 ([13]; 31 g ai/ha): 60
- Plant response rating: Waterhemp_RES1 ([13]; 62 g ai/ha): 60
- Plant response rating: Waterhemp_RES1 ([13]; 125 g ai/ha): 85
- Plant response rating: Waterhemp_RES1 ([13]; 250 g ai/ha): 90
